# Test results taken from publication PMC12990037, “Discovery of Two Structurally Distinct Classes of Inhibitors Targeting the Nuclease MUS81 and Enhancing Efficacy of Chemotherapy in Cancer Cells” (Journal of Medicinal Chemistry, 2026).
# Test system: CAL51 WT cells
# Assay: Long-term cell survival assay (retreatment twice a week)
# Type: cell-based
# Settings: 1–3 μM, treated twice a week for almost 3 weeks
# Method: To evaluate the long-term effects of the inhibitors on the cellular viability, we treated cells twice a week for almost 3 weeks with low doses of MU262 and MU876.
# CAL51 WT cells were treated with DMSO, MU262 = 18, MU876 = 32, nontargeting siRNA, or siRNA targeting MUS81. Cells were trypsinized, counted, and replated twice a week and retreated with inhibitors or siRNA with every passage. The cell number was plotted at each time point. Data were plotted in Graphpad Prism (GraphPad Software) and a 2-way ANOVA test was used to assess significance.
smiles,measurement,value
"CCc1nn2c(O)c(-c3nc4ccccc4[nH]3)nnc2c1-c1ccc(F)cc1 [Compound 18, 3-(1H-Benzo[d]imidazole-2-yl)-7-ethyl-8-(4-fluorophenyl)pyrazolo[5,1-c][1,2,4]triazin-4-ol]",long-term viability,significant reduction in viability
